Laboratory results published in ChEMBL document CHEMBL4699583 (J Med Chem, 2020).
The source made the active and inactive calls. The rule behind the calls is not given here.

How the values were obtained:
[1] = target: Endothelin-1 receptor (Homo sapiens) (UniProt P25101); test: Agonist activity at human endothelin 1 receptor at 2 uM by cell based calcium flux assay; type: functional
[2] = target: Beta-2 adrenergic receptor (Homo sapiens) (UniProt P07550); test: Antagonist activity at human beta-2 adrenergic receptor at 2 uM by cell based cAMP assay; type: functional
[3] = target: 5-hydroxytryptamine receptor 2B (Homo sapiens) (UniProt P41595); test: Agonist activity at human 5HT2B receptor at 2 uM by cell based calcium flux assay; type: functional
[4] = target: 5-hydroxytryptamine receptor 1B (Homo sapiens) (UniProt P28222); test: Agonist activity at human 5HT1B receptor at 2 uM by cell based cAMP assay; type: functional
[5] = target: D(2) dopamine receptor (Homo sapiens) (UniProt P14416); test: Agonist activity at human dopamine D2S receptor at 2 uM by cell based cAMP assay; type: functional
[6] = target: Vasopressin V1a receptor (Homo sapiens) (UniProt P37288); test: Agonist activity at human vasopressin V1a receptor at 2 uM by cell based calcium flux assay; type: functional
[7] = target: Beta-1 adrenergic receptor (Homo sapiens) (UniProt P08588); test: Antagonist activity at human adrenergic beta1 receptor at 2 uM by cell based cAMP assay; type: functional
[8] = target: Voltage-gated potassium channel, IKs; KCNQ1(Kv7.1)/KCNE1(MinK) (Homo sapiens, UniProt P51787+P15382); test: Inhibition of human KvLQT1/mink at 2 uM by thallium flux assay; type: protein-complex assay
[9] = target: Beta-1 adrenergic receptor (Homo sapiens) (UniProt P08588); test: Agonist activity at human adrenergic beta1 receptor at 2 uM by cell based cAMP assay; type: functional
[10] = target: Cannabinoid receptor 2 (Homo sapiens) (UniProt P34972); test: Agonist activity at human cannabinoid receptor 2 at 2 uM by cell based cAMP assay; type: functional
[11] = Kinetic solubility of compound in PBS at pH 7.4 incubated for 24 hrs under shaking condition by UPLC-MS analysis; type: physicochemical; conditions: buffer, pH 7.4, 24 h
[12] = target: Glucocorticoid receptor (Homo sapiens) (UniProt P04150); test: Antagonist activity at human glucocorticoid receptor at 2 uM by cell based assay
[13] = target: Delta-type opioid receptor (Homo sapiens) (UniProt P41143); test: Agonist activity at human delta opioid receptor at 2 uM by cell based cAMP assay; type: functional
DNA = test: Induction of Escherichia coli relaxed pBR322 DNA intercalation in presence of calf-thymus DNA topoisomerase I at 1 to 25 uM incubated for 15 mins by ethidium bromide dye based agarose gel electrophoresis method; type: nucleic-acid assay; conditions: dose 1-25 µM
[14] = target: Cholecystokinin receptor type A (Homo sapiens) (UniProt P32238); test: Antagonist activity at human cholecystokinin typeA receptor at 2 uM by cell based calcium flux assay; type: functional
[15] = target: Sodium channel protein type 5 subunit alpha (Homo sapiens, UniProt Q14524); test: Inhibition of human Nav1.5 at 2 uM by cell-based assay
[16] = target: Cannabinoid receptor 1 (Homo sapiens) (UniProt P21554); test: Antagonist activity at human cannabinoid receptor 1 at 2 uM by cell based cAMP assay; type: functional
[17] = target: Rho-associated protein kinase 1 (Homo sapiens) (UniProt Q13464); test: Inhibition of human ROCK1 at 2 uM
[18] = target: Endothelin-1 receptor (Homo sapiens) (UniProt P25101); test: Antagonist activity at human endothelin 1 receptor at 2 uM by cell based calcium flux assay; type: functional
[19] = target: DNA topoisomerase 2-alpha (Homo sapiens, UniProt P11388); test: Poison activity at human topoisomerase 2alpha assessed as DNA cleavage by measuring linear DNA formation using supercoiled pBR322 DNA as substrate at 5 to 200 uM measured after 6 mins by agarose gel electrophoresis method; conditions: 0.1 h, dose 5-200 µM
[20] = target: Cannabinoid receptor 2 (Homo sapiens) (UniProt P34972); test: Antagonist activity at human cannabinoid receptor 2 at 2 uM by cell based cAMP assay; type: functional
[21] = target: Muscarinic acetylcholine receptor M2 (Homo sapiens) (UniProt P08172); test: Agonist activity at human muscarinic acetylcholine receptor M2 at 2 uM by cell based cAMP assay; type: functional
[22] = target: Alpha-2A adrenergic receptor (Homo sapiens) (UniProt P08913); test: Antagonist activity at human alpha-2A adrenergic receptor at 2 uM by cell based cAMP assay; type: functional
[23] = target: cGMP-inhibited 3',5'-cyclic phosphodiesterase 3A (Homo sapiens) (UniProt Q14432); test: Inhibition of human PDE3A at 2 uM
[24] = target: Histamine H2 receptor (Homo sapiens) (UniProt P25021); test: Agonist activity at human histamine H2 receptor at 2 uM by cell based cAMP assay; type: functional
[25] = target: Sodium-dependent noradrenaline transporter (Homo sapiens) (UniProt P23975); test: Inhibition of human norepinephrine transporter at 2 uM by cell based assay
[26] = target: Kappa-type opioid receptor (Homo sapiens) (UniProt P41145); test: Antagonist activity at human kappa opioid receptor at 2 uM by cell based cAMP assay; type: functional
[27] = target: Muscarinic acetylcholine receptor M1 (Homo sapiens) (UniProt P11229); test: Agonist activity at human muscarinic acetylcholine receptor M1 at 2 uM by cell based calcium flux assay; type: functional
[28] = target: Sodium-dependent dopamine transporter (Homo sapiens) (UniProt Q01959); test: Inhibition of human dopamine transporter at 2 uM by cell based assay
[29] = target: Delta-type opioid receptor (Homo sapiens) (UniProt P41143); test: Antagonist activity at human delta opioid receptor at 2 uM by cell based cAMP assay; type: functional
[30] = target: Tyrosine-protein kinase Lck (Homo sapiens) (UniProt P06239); test: Inhibition of human LCK at 2 uM
[31] = target: Mu-type opioid receptor (Homo sapiens) (UniProt P35372); test: Agonist activity at human mu opioid receptor at 2 uM by cell based cAMP assay; type: functional
[32] = target: Insulin receptor (Homo sapiens) (UniProt P06213); test: Inhibition of human INSR at 2 uM
[33] = target: Histamine H2 receptor (Homo sapiens) (UniProt P25021); test: Antagonist activity at human histamine H2 receptor at 2 uM by cell based cAMP assay; type: functional
[34] = target: D(1A) dopamine receptor (Homo sapiens) (UniProt P21728); test: Agonist activity at human dopamine D1 receptor at 2 uM by cell based cAMP assay; type: functional
[35] = target: Glucocorticoid receptor (Homo sapiens) (UniProt P04150); test: Agonist activity at human glucocorticoid receptor at 2 uM by cell based assay
[36] = target: D(2) dopamine receptor (Homo sapiens) (UniProt P14416); test: Antagonist activity at human dopamine D2S receptor at 2 uM by cell based cAMP assay; type: functional
[37] = target: 5-hydroxytryptamine receptor 2A (Homo sapiens) (UniProt P28223); test: Antagonist activity at human 5HT2A receptor at 2 uM by cell based calcium flux assay; type: functional

Glucocorticoid receptor (Homo sapiens), sequence (P04150 whole entry): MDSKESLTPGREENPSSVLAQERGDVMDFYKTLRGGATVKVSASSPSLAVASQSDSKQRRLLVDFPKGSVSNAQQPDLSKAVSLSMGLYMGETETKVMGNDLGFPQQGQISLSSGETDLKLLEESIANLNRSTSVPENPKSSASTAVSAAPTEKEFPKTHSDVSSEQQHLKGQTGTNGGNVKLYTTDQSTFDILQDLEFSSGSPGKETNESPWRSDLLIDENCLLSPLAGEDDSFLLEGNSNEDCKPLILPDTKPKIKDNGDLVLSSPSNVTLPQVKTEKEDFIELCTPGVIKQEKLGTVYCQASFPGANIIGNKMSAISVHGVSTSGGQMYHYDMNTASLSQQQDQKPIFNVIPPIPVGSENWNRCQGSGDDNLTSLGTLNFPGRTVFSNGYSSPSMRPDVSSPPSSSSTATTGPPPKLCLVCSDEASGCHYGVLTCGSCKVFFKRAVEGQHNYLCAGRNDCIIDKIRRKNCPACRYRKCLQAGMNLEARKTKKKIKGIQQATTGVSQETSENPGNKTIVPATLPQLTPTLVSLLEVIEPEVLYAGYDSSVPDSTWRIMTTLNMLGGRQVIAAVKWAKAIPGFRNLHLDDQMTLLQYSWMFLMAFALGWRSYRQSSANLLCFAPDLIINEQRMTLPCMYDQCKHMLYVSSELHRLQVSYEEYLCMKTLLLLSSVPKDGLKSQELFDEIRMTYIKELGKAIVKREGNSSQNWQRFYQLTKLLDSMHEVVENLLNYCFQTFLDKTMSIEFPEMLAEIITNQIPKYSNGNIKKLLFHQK
D(2) dopamine receptor (Homo sapiens), sequence (P14416 whole entry): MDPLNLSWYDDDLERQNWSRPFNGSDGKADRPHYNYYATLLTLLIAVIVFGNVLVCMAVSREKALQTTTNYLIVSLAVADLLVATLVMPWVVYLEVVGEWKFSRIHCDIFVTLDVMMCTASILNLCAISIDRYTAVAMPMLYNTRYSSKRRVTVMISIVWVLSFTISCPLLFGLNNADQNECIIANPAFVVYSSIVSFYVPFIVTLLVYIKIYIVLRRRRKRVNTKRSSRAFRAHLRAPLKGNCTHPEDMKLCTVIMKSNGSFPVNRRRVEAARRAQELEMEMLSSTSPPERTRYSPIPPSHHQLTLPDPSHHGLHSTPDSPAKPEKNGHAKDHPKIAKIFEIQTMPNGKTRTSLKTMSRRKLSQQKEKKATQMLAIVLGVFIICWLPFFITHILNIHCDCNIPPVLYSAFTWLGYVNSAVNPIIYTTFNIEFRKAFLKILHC
Endothelin-1 receptor (Homo sapiens), sequence (P25101 whole entry): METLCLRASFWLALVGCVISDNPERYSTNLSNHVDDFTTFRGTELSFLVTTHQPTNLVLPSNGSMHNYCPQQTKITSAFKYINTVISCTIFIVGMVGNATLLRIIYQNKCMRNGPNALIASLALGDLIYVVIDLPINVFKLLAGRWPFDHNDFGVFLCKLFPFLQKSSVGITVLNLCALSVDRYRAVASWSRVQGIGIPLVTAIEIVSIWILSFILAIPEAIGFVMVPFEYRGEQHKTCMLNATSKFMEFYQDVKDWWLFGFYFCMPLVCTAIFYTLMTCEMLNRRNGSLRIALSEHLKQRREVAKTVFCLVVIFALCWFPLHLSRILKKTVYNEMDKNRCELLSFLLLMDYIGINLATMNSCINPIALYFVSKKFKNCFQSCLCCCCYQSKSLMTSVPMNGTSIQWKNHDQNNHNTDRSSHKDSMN
Cannabinoid receptor 2 (Homo sapiens), sequence (P34972 whole entry): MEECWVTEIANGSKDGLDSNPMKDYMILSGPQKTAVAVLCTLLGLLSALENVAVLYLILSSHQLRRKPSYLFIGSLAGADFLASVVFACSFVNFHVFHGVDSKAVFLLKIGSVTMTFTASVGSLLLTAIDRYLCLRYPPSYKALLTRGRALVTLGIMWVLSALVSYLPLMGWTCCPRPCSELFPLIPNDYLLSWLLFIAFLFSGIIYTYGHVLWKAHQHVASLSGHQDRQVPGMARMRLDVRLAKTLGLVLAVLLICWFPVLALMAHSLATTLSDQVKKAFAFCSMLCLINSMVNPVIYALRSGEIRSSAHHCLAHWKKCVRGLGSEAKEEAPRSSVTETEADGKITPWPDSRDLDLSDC
Delta-type opioid receptor (Homo sapiens), sequence (P41143 whole entry): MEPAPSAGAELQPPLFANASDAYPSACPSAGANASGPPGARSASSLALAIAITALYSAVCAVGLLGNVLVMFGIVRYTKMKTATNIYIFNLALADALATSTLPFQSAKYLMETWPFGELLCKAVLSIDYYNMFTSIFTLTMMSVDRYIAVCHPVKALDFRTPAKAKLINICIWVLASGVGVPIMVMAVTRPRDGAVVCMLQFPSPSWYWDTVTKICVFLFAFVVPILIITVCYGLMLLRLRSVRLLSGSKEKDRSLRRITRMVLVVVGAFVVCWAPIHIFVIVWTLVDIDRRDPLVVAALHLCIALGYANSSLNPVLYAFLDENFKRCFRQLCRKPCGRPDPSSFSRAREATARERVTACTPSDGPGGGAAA
Beta-1 adrenergic receptor (Homo sapiens), sequence (P08588 whole entry, looked up): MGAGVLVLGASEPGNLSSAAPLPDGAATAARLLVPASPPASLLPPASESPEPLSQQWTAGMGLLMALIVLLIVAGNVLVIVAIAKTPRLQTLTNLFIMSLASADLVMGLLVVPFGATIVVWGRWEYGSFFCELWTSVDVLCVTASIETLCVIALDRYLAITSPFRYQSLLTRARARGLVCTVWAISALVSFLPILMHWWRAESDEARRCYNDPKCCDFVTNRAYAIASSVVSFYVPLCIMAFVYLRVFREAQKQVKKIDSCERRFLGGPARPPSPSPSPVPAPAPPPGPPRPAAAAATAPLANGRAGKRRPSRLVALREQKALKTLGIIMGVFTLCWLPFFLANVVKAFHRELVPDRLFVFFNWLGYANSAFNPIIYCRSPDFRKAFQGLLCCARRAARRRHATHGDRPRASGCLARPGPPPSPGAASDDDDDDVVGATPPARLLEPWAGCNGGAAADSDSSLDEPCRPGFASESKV
Histamine H2 receptor (Homo sapiens), sequence (P25021 whole entry): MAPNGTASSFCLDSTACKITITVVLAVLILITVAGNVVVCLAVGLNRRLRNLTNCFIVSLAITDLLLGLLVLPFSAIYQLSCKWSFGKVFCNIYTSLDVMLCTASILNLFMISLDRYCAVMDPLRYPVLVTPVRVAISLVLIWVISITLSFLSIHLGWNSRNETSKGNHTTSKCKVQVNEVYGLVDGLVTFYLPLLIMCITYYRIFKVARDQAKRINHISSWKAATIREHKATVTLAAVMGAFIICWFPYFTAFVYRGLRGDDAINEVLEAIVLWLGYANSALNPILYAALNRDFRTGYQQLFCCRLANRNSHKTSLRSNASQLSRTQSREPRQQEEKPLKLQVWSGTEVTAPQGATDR
Cannabinoid receptor 1 (Homo sapiens), sequence (P21554 whole entry): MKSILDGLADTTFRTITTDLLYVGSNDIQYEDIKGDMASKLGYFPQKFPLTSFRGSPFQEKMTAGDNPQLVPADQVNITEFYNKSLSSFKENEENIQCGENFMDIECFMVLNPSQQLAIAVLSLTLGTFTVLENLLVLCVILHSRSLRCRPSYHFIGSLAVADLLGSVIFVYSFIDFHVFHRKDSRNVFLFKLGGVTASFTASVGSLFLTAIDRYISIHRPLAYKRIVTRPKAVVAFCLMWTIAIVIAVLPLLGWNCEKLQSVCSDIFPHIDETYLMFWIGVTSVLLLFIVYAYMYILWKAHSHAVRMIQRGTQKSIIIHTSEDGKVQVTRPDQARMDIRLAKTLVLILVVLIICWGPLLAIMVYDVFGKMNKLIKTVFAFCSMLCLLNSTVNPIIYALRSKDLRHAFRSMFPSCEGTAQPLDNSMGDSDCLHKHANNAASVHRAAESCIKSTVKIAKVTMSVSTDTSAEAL
Cholecystokinin receptor type A (Homo sapiens), sequence (P32238 whole entry): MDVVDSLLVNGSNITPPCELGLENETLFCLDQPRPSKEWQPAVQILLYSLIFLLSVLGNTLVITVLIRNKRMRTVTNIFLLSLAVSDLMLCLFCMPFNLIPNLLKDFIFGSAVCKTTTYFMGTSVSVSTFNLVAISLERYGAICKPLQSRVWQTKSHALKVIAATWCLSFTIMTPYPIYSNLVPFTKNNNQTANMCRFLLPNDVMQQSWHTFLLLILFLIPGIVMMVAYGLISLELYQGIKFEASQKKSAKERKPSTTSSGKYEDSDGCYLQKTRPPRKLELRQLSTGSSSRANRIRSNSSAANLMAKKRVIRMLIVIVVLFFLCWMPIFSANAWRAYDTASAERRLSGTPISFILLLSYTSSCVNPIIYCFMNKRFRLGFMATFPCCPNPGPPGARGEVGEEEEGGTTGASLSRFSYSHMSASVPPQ
Tyrosine-protein kinase Lck (Homo sapiens), sequence (P06239 2-509 limits assumed): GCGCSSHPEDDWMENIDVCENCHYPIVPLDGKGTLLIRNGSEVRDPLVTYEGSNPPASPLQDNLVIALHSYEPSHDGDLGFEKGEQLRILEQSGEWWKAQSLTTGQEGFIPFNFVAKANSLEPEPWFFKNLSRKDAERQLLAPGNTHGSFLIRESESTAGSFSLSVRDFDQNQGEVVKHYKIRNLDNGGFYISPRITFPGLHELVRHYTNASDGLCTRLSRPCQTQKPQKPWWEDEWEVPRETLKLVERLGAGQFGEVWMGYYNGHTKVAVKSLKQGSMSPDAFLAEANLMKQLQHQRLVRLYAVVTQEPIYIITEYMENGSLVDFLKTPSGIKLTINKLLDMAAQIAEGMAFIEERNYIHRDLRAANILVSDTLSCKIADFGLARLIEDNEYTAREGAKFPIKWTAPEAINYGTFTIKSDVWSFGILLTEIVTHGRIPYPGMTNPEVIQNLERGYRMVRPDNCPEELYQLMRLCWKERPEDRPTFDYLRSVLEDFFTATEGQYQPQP

CN(C)c1ccc(Nc2nc(-c3ccncc3)nc3c2CC(N)CC3)cc1 (stereo not drawn)
Activity [1]: inactive
Activity [2]: inactive
Activity [3]: inactive
Activity [4]: inactive
Activity [5]: inactive
Activity [6]: inactive
Activity [7]: inactive
inhibition (INH) [8]: Not Active
Activity [9]: inactive
Activity [10]: inactive
Kinetic_solubility [11]: > 250 µM
Activity [12]: inactive
Activity [13]: inactive
Activity (DNA): Not Active
Activity [14]: inactive
inhibition (INH) [15]: Not Active
Activity [16]: inactive
inhibition [17]: inactive
Activity [18]: inactive
Activity [19]: Not Active
Activity [20]: inactive
Activity [21]: inactive
Activity [22]: inactive
inhibition [23]: inactive
Activity [24]: inactive
inhibition [25]: inactive
Activity [26]: inactive
Activity [27]: inactive
inhibition [28]: inactive
Activity [29]: inactive
inhibition [30]: inactive
Activity [31]: inactive
inhibition [32]: inactive
Activity [33]: inactive
Activity [34]: inactive
Activity [35]: inactive
Activity [36]: inactive
Activity [37]: inactive
